Values quoted from earlier work, collected in patent US7122568B1, “Use of low-dose PDT to inhibit restenosis” (QLT, Inc., priority 1999, dated 2006).
Read-outs that look alike come from different tables or passages of the source.

Tests used:
porcine model = conditions: 0.3 mg/kg injected four hours prior to endothelial denudation; external irradiation 20 J/cm2 of 652 nm
[1] = test system: normal rabbit carotid arteries; conditions: systemic administration 7 days after denudation, external irradiation two days later; five weeks after PDT
[2] = test system: rabbit arteries injured by endothelial denudation; conditions: systemic administration after injury, 120 or 240 J/cm2 irradiation 24 hours later
[3] = test system: normal rat carotid arteries; conditions: systemic administration, external irradiation; PDT on days 2 and 7 after denudation, read on day 14

Molecule: Oc1cccc(-c2c3nc(c(-c4cccc(O)c4)c4ccc([nH]4)c(-c4cccc(O)c4)c4nc(c(-c5cccc(O)c5)c5ccc2[nH]5)CC4)C=C3)c1 [m-THPC, metatetrahydroxyphenyl-chlorin]
- effect on intimal area (porcine model): significant increase of intimal area

Molecule: Photofrin™
- effect on induced IH response (ratio of IH area to normalized area enclosed by the IEL) [1]: effective in reducing the induced IH response
- effect on IH [2]: prevention of IH

Molecule: benzoporphyrin derivative monoacid ring A [BPD-MA]
- effect on IH (rat carotid artery; 0.5 μg/ml local delivery, 50 and 100 J/cm2 of 690 nm (Stages I and II)): little effect on reducing IH
- effect on IH (rat carotid artery; 0.5 μg/ml local delivery, 100 J/cm2 of 690 nm (Stage II)): induction of significant IH
- effect on IH (rat carotid artery; 25 μg/ml local delivery, 50 J/cm2 of 690 nm (Stage III)): inhibit IH
- photothrombosis (rat carotid artery; 25 μg/ml local delivery, 100 J/cm2 of 690 nm (Stage IV)): induce photothrombosis

Molecule: chloraluminum-sulfonated phthalocyanine [CASPc]
- effect on induced IH response [3]: effective in inhibiting the induced IH response
